The results in this text go back to BindingDB's records for doi:10.1021/jm010246u (University of Texas At Austin, 2001).

In experiment [1] the target is T1, Telomerase reverse transcriptase (Homo sapiens, UniProt O14746). Nature of the experiment: Apparent telomerase inhibition by primer mechanism.
In experiment [2] the target is T1, Telomerase reverse transcriptase. Kind of experiment: Apparent telomerase inhibition by G-quadruplex mechanism.

A word on the IC50: it is the concentration at which inhibition is half-maximal.

T1 sequence (O14746 whole entry): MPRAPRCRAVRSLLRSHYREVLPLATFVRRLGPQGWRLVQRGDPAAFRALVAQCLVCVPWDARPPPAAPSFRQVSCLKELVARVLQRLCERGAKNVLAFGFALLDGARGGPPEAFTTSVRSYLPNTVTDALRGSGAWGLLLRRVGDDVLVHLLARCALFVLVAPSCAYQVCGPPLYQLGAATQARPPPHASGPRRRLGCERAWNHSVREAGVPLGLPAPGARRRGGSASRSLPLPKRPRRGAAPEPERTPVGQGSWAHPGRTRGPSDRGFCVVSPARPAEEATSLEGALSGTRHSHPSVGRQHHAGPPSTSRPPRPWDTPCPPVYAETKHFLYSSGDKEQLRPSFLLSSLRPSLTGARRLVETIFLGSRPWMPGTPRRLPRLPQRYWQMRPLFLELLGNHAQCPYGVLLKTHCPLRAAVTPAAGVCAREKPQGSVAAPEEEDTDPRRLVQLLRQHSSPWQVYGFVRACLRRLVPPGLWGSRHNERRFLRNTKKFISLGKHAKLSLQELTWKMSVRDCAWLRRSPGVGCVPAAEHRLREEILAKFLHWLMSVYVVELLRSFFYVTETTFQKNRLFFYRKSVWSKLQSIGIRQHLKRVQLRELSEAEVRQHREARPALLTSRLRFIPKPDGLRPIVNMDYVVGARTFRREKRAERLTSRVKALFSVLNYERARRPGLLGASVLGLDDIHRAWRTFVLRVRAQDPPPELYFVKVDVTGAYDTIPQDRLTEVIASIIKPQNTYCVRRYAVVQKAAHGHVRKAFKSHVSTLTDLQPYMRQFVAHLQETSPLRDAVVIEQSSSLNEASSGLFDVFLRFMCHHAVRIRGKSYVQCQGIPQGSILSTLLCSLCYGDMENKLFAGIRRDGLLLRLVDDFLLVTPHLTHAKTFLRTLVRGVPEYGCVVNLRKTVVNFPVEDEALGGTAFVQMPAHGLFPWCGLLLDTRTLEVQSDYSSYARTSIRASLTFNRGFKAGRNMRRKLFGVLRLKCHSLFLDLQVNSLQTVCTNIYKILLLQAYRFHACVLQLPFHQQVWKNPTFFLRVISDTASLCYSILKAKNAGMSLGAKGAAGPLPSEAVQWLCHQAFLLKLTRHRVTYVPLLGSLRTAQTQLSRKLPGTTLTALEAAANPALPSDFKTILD

Consider `C[n+]1cc(-c2ccco2)cc(-c2c3nc(c(-c4cc(-c5ccco5)c[n+](C)c4)c4ccc([nH]4)c(-c4cc(-c5ccco5)c[n+](C)c4)c4ccc([nH]4)c(-c4cc(-c5ccco5)c[n+](C)c4)c4nc2C=C4)C=C3)c1` [5,10,15,20-tetra[5-(2-furfuryl)-N-methyl-3-pyridyl]porphyrin chloride], for which the IC50 in experiment [1] is 8 µM.

Regarding `C[n+]1ccc(-c2c3nc(c(-c4cccc([N+](=O)[O-])c4)c4nc(c(-c5cc[n+](C)cc5)c5ccc([nH]5)c(-c5cccc([N+](=O)[O-])c5)c5ccc2[nH]5)C=C4)C=C3)cc1`, the IC50 in experiment [2] turned out to be 25 µM. Same read-out and setting: in the case of `CC[n+]1ccc(-c2c3nc(c(-c4cc[n+](CC)cc4)c4ccc([nH]4)c(-c4cc[n+](CC)cc4)c4ccc([nH]4)c(-c4cc[n+](CC)cc4)c4nc2C=C4)C=C3)cc1` it was 25 µM. On the same count and under the same terms, next, `C[n+]1ccc(-c2c3nc(c(-c4cc[n+](C)cc4)c4ccc([nH]4)c(-c4cc[n+](C)cc4)c4nc(c(-c5cc[n+](C)cc5)c5ccc2[nH]5)C=C4)C=C3)cc1`: 8 µM; `C[n+]1ccc(-c2c3nc(c(-c4cc[n+](C)cc4)c4ccc([nH]4)c(-c4cccc([N+](=O)[O-])c4)c4ccc([nH]4)c(-c4cc[n+](C)cc4)c4nc2C=C4)C=C3)cc1`: 12 µM.
